Assay results from article PMC12064818, “A general assay platform to study protein pharmacology using ligand-dependent structural dynamics” (Nature Communications, 2025).

Biological target: firefly luciferase (FLuc) (Photinus pyralis, UniProt P08659)
Experiment: Thermal shift profiles (Thermofluor assay), FLuc;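 for Thermofluor FLuc, No ATP: normalized first derivative of fluorescence (dF/dT) at the stated temperature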
Assay type: binding
Design: unit of the concentration uncertain
Details: compound 100 (unit uncertain); for Thermofluor FLuc, ATP: ATP (2 (unit uncertain))

Sequence of firefly luciferase (FLuc) (P08659 whole entry): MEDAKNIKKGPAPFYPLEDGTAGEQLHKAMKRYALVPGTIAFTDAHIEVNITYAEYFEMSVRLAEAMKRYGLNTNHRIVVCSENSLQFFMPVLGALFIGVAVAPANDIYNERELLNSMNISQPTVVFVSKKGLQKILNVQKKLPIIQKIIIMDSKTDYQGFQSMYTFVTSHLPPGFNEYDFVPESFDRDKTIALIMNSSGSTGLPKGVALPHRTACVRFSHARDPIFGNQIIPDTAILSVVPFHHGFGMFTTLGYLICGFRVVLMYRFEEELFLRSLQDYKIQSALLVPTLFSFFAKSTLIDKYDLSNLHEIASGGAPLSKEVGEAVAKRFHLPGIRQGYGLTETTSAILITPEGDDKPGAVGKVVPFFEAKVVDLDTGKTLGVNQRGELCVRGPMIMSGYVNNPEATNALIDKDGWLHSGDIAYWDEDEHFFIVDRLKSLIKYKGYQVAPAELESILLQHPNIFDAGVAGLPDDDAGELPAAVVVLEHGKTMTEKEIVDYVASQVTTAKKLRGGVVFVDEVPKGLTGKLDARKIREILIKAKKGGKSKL

COc1ccc(NC(=O)C2CCN(C(=O)c3ncn4c3COC(c3ccccc3)C4)CC2)cc1Cl (centres unmarked) [NCGC 00449919]
Thermofluor FLuc, No ATP (20.000 °C): 0.250 | Thermofluor FLuc, ATP (20.000 °C): 0.934 | Thermofluor FLuc, No ATP (20.993 °C): 0.185 | Thermofluor FLuc, ATP (20.993 °C): 0.955 | Thermofluor FLuc, No ATP (21.987 °C): 0.201 | Thermofluor FLuc, ATP (21.987 °C): 0.975 | Thermofluor FLuc, No ATP (22.980 °C): 0.152 | Thermofluor FLuc, ATP (22.980 °C): 0.992 | Thermofluor FLuc, No ATP (23.974 °C): 0.098 | Thermofluor FLuc, ATP (23.974 °C): 1 | Thermofluor FLuc, No ATP (24.967 °C): 0.101 | Thermofluor FLuc, ATP (24.967 °C): 0.999 | Thermofluor FLuc, No ATP (25.960 °C): 0.104 | Thermofluor FLuc, ATP (25.960 °C): 0.991 | Thermofluor FLuc, No ATP (26.954 °C): 0.059 | Thermofluor FLuc, ATP (26.954 °C): 0.977 | Thermofluor FLuc, No ATP (27.947 °C): 0.054 | Thermofluor FLuc, ATP (27.947 °C): 0.961 | Thermofluor FLuc, No ATP (28.940 °C): 0.030 | Thermofluor FLuc, ATP (28.940 °C): 0.943 | Thermofluor FLuc, No ATP (29.934 °C): 0.043 | Thermofluor FLuc, ATP (29.934 °C): 0.925 | Thermofluor FLuc, No ATP (30.927 °C): 0.015 | Thermofluor FLuc, ATP (30.927 °C): 0.906 | Thermofluor FLuc, No ATP (31.921 °C): 0.031 | Thermofluor FLuc, ATP (31.921 °C): 0.886 | Thermofluor FLuc, No ATP (32.914 °C): 0.002 | Thermofluor FLuc, ATP (32.914 °C): 0.862 | Thermofluor FLuc, No ATP (33.907 °C): 0.008 | Thermofluor FLuc, ATP (33.907 °C): 0.832 | Thermofluor FLuc, No ATP (34.901 °C): 0.005 | Thermofluor FLuc, ATP (34.901 °C): 0.793 | Thermofluor FLuc, No ATP (35.894 °C): 0.014 | Thermofluor FLuc, ATP (35.894 °C): 0.741 | Thermofluor FLuc, No ATP (36.887 °C): 0.000 | Thermofluor FLuc, ATP (36.887 °C): 0.675 | Thermofluor FLuc, No ATP (37.881 °C): 0.036 | Thermofluor FLuc, ATP (37.881 °C): 0.591 | Thermofluor FLuc, No ATP (38.874 °C): 0.034 | Thermofluor FLuc, ATP (38.874 °C): 0.492 | Thermofluor FLuc, No ATP (39.868 °C): 0.075 | Thermofluor FLuc, ATP (39.868 °C): 0.38 | Thermofluor FLuc, No ATP (40.861 °C): 0.126 | Thermofluor FLuc, ATP (40.861 °C): 0.264 | Thermofluor FLuc, No ATP (41.854 °C): 0.197 | Thermofluor FLuc, ATP (41.854 °C): 0.155 | Thermofluor FLuc, No ATP (42.848 °C): 0.295 | Thermofluor FLuc, ATP (42.848 °C): 0.067 | Thermofluor FLuc, No ATP (43.841 °C): 0.412 | Thermofluor FLuc, ATP (43.841 °C): 0.013 | Thermofluor FLuc, No ATP (44.835 °C): 0.542 | Thermofluor FLuc, ATP (44.835 °C): 0 | Thermofluor FLuc, No ATP (45.828 °C): 0.677 | Thermofluor FLuc, ATP (45.828 °C): 0.03 | Thermofluor FLuc, No ATP (46.821 °C): 0.764 | Thermofluor FLuc, ATP (46.821 °C): 0.099 | Thermofluor FLuc, No ATP (47.815 °C): 0.849 | Thermofluor FLuc, ATP (47.815 °C): 0.195 | Thermofluor FLuc, No ATP (48.808 °C): 0.904 | Thermofluor FLuc, ATP (48.808 °C): 0.306 | Thermofluor FLuc, No ATP (50.795 °C): 0.949 | Thermofluor FLuc, ATP (50.795 °C): 0.532 | Thermofluor FLuc, No ATP (51.788 °C): 1.000 | Thermofluor FLuc, ATP (51.788 °C): 0.632 | Thermofluor FLuc, ATP (52.782 °C): 0.721 | Thermofluor FLuc, No ATP (53.775 °C): 1.000 | Thermofluor FLuc, ATP (53.775 °C): 0.796 | Thermofluor FLuc, No ATP (54.768 °C): 0.991 | Thermofluor FLuc, ATP (54.768 °C): 0.857 | Thermofluor FLuc, No ATP (55.762 °C): 0.972 | Thermofluor FLuc, ATP (55.762 °C): 0.903 | Thermofluor FLuc, No ATP (56.755 °C): 0.954 | Thermofluor FLuc, ATP (56.755 °C): 0.933 | Thermofluor FLuc, No ATP (57.748 °C): 0.930 | Thermofluor FLuc, ATP (57.748 °C): 0.95 | Thermofluor FLuc, No ATP (58.742 °C): 0.908 | Thermofluor FLuc, ATP (58.742 °C): 0.958 | Thermofluor FLuc, No ATP (59.735 °C): 0.892 | Thermofluor FLuc, ATP (59.735 °C): 0.959 | Thermofluor FLuc, No ATP (60.729 °C): 0.925 | Thermofluor FLuc, ATP (60.729 °C): 0.959 | Thermofluor FLuc, No ATP (61.722 °C): 0.872 | Thermofluor FLuc, ATP (61.722 °C): 0.958 | Thermofluor FLuc, No ATP (62.715 °C): 0.877 | Thermofluor FLuc, ATP (62.715 °C): 0.96 | Thermofluor FLuc, No ATP (63.709 °C): 0.837 | Thermofluor FLuc, ATP (63.709 °C): 0.963 | Thermofluor FLuc, No ATP (65.695 °C): 0.837 | Thermofluor FLuc, ATP (65.695 °C): 0.975 | Thermofluor FLuc, No ATP (66.689 °C): 0.789 | Thermofluor FLuc, ATP (66.689 °C): 0.981 | Thermofluor FLuc, No ATP (68.676 °C): 0.772 | Thermofluor FLuc, ATP (68.676 °C): 0.992 | Thermofluor FLuc, No ATP (69.669 °C): 0.774 | Thermofluor FLuc, ATP (69.669 °C): 0.996 | Thermofluor FLuc, No ATP (70.662 °C): 0.720 | Thermofluor FLuc, ATP (70.662 °C): 0.998 | Thermofluor FLuc, No ATP (71.656 °C): 0.708 | Thermofluor FLuc, ATP (71.656 °C): 0.999 | Thermofluor FLuc, No ATP (72.649 °C): 0.718 | Thermofluor FLuc, ATP (72.649 °C): 0.999 | Thermofluor FLuc, No ATP (73.643 °C): 0.669 | Thermofluor FLuc, ATP (73.643 °C): 0.998 | Thermofluor FLuc, No ATP (74.636 °C): 0.675 | Thermofluor FLuc, ATP (74.636 °C): 0.997 | Thermofluor FLuc, No ATP (75.629 °C): 0.640 | Thermofluor FLuc, ATP (75.629 °C): 0.995
